# Experimental data as given in patent US20110098296A1, “Thiazole And Oxazole Kinase Inhibitors” (priority 2007, published 2011).
# Structures can show the parent of a compound that is named as a salt.
# Legend:
# [1] = test system: Colo205 tumor cells; assay: Method C: Cell Growth Inhibition Assay (CellTiter-Glo), Colo205; format: cell-based; conditions: Homo sapiens, COLO 205, 72 h, 3 days, 4-parameter fit
# Method: (§1) Human breast tumor cells (BT474) were cultured in RPMI (Mediatech 50-011-PB), containing 10% FBS (JRH Biosciences 12176) and 1% penicillin-streptomycin (Invitrogen 15140). Human head and neck tumor cells (HN5) were cultured in high glucose DMEM (Mediatech 50-013-PB) containing 10% FBS and 1% penicillin-streptomycin. Human colon tumor cells (Colo205) were cultured in RPMI (Mediatech 50-020-PB) containing 10% FBS and 1% penicillin-streptomycin. Human melanoma cancer cells (SK-MEL-28) were cultured in EMEM with nonessential amino acids (Mediatech 50-011-PB) containing 10% FBS, 1% sodium pyruvate (JT Baker 3354-04), and 1% penicillin-streptomycin. Human melanoma cancer cells (A375P F11s) were cultured in RPMI (Mediatech 50-020-PB) containing 10% FBS, 1% sodium pyruvate, and 1% penicillin-streptomycin. Human colon cancer cells (HT-29) were cultured in high glucose DMEM (Mediatech 50-013-PB) containing 10% FBS and 1% penicillin-streptomycin. Human melanoma cancer cells (SK-MEL-3) were cultured in McCoy's 5A (50-025-PB) containing 15% FBS, and 1% penicillin-streptomycin. All cell lines were maintained at 37° C. in a humidified 5% CO2, 95% air incubator. Cells were harvested using trypsin/EDTA (Invitrogen 25200), counted using an haemocytometer, and plated. For 96-well assays (using white full-area NUNC plates cat. #136102), cells were plated in 105 μL at the following densities (cells/well): HN5, 500; Colo205, 500; SK-MEL-28, 500; A375P-F11s, 500; HT-29, 500; SK-MEL-3, 500; and BT474, 3000. For 384-well assays (white full-area NUNC plates, cat. #781080), cells were plated in 48 μL at the following densities (cells/well): HN5, 500; Colo205, 500; SK-MEL-28, 500; A375P-F11s, 500; HT29, 500; SK-MEL-3, 500; and BT474, 2000.
# (§2) The next day, compounds were diluted as follow: For 96-well assays, 13.5 μL of compound in DMSO were diluted using nine (9) serial 1:3 dilutions of 4.5 μL in 9 μL of DMSO. Medium (270 μl/well of RPMI with 10% FBS and 1% penicillin-streptomycin) was added to the plates. Aliquots (7 μl) were added to cells in the final assay giving a final DMSO concentration of 0.2%. For 384-well assays, 15 μL of compound in DMSO were diluted using nine (9) serial 1:3 dilutions of 5 μL in 10 μL of DMSO, followed by a further dilution of 5 μL of compound with 95 μL of medium, of which 2 μL were added to cells in the final assay giving a final DMSO concentration of 0.2%. Cells were incubated at 37° C., 5% CO2 for 3 days.
# (§3) Total ATP was measured (as a surrogate estimate of cell number) using CellTiter-Glo® reagent (Promega G7571). Briefly, plates were removed from the incubator and allowed to equilibrate to room temperature for 30 minutes. CellTiter-Glo® (25 μL or 55 μL for 384-well or 96-well assays, respectively) reagent was added to each well and plates were shaken on an orbital plate shaker for 2 mins. Plates were incubated without shaking for a further 30 mins and read on an LJL Analyst GT reader in luminometer mode with an integration time of 0.5 seconds per well. Percent inhibition of cell growth was calculated relative to DMSO vehicle-treated control wells. Concentration of compound required to give 50% inhibition of vehicle-treated control cell growth (IC50) was interpolated using a 4-parameter fit for determining IC50 using the following equation: Y=A+((B−A)/(1+((C/X)̂D))) where X=IC50.
# [2] = target: T1, EGFR (Homo sapiens, UniProt P00533); assay: EGFR substrate phosphorylation assay (HTRF); format: biochemical; conditions: Method (A): Enzyme Mix incubated with compound at 20° C. for 1 hr, reaction started by adding Substrate Mix
# T1 construct: made in house; host or cells: baculovirus expression system
# T1 sequence (P00533 25-1210): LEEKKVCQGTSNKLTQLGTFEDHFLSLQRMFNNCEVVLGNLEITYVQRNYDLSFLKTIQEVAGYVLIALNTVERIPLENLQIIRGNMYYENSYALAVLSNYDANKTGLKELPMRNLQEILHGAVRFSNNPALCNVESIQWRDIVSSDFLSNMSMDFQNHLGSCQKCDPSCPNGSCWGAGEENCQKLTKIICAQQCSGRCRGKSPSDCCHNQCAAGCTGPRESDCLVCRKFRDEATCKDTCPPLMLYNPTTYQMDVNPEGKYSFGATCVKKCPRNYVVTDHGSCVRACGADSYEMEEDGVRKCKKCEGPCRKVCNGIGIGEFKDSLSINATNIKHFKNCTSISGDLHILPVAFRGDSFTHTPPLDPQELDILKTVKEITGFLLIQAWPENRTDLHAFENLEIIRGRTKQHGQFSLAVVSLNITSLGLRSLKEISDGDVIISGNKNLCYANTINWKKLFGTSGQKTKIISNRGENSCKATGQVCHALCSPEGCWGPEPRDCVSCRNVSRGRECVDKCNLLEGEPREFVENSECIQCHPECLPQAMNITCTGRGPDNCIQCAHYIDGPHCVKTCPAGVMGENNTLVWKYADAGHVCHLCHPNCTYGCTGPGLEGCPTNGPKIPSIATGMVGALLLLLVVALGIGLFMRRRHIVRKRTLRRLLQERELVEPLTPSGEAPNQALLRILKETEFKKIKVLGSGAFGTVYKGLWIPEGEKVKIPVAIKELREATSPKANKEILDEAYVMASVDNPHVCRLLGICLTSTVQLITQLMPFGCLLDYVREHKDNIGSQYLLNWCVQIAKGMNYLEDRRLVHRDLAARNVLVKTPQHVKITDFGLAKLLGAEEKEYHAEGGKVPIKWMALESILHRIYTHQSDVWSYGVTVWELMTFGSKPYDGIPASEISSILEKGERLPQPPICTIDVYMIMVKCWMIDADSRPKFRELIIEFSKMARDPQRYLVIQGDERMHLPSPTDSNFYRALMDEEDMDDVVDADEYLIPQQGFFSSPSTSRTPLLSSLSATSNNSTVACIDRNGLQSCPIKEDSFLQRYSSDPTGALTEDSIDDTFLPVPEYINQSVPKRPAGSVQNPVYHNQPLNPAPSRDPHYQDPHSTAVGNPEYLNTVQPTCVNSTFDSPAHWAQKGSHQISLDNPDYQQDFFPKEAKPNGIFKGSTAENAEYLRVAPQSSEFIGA
# Method: (§4) Compounds of the present invention were tested for EGFR and ErbB-2 protein tyrosine kinase inhibitory activity in substrate phosphorylation assays using enzymes purified from a baculovirus expression system. Reagent production was conducted essentially as described in Brignola, P. S., et al., (2002) J. Biol. Chem. 277(2):1576-1585.
# (§5) The method measures the ability of the isolated enzyme to catalyse the transfer of the gamma-phosphate from ATP onto the tyrosine residue of a biotinylated synthetic peptide referenced “Peptide C” in Brignola, P. S., et al., (2002) J. Biol. Chem. 277(2):1576-1585. The extent of tyrosine phosphorylation was measured using an anti-phosphotyrosine antibody, and quantified by homogenous time-resolved fluorescence (HTRF).
# (§6) Reactions were performed in black 384-well polystyrene flat-bottom plates in a final volume of 20 μl. Assays were performed by adding 10 μl of each of the following solutions, Substrate Mix and Enzyme Mix: The Substrate Mix contained 100 mM 3-[N-morpholino]propanesulfonic acid (MOPS) (pH 7.5), 2 mM MnCl2, 20 μM ATP, 0.01% Tween-20, 0.1 mg/mL (BSA), 0.8 uM peptide substrate, and 1 mM dithiothreitol. The Enzyme Mix contained 100 mM MOPS (pH 7.5); 0.01% Tween-20; 0.1 mg/mL BSA, and either 0.8 nM EGFR, 10 nM ErbB2, or 1 nM ErbB4
# (§7) During the course of these studies, two separate methods have been used to measure the potency of compounds. In Method A (indicated as “(A)” in the tables below), the Enzyme Mix was added to the compound plates and the plates were incubated at 20° C. for 1 hr. The reactions were then started by adding the Substrate Mix. In Method B (indicated as “(B)” in the tables below), the Substrate Mix was added to the compound plates first, then the reaction was started by adding the Enzyme Mix.
# (§8) After initiating the reaction with either method describe above, the reactions were allowed to proceed for 90 minutes at 20° C. The reactions were then terminated by the addition of 20 μL 100 mM EDTA to each well. 40 μL/well of HTRF detection mix were added to the assay plates. The final concentrations of the detection reagents were: 100 mM HEPES (pH7.5), 0.1 mg/mL BSA, 15 nM streptavidin-labeled allophycocyanin (PerkinElmer), and 1 nM europium-labeled anti-phosphotyrosine antibody (PerkinElmer). Assay plates were left unsealed and were counted in a Wallac Multilabel Counter 1420 (PerkinElmer).
# (§9) Compounds under analysis were dissolved in dimethylsulfoxide (DMSO) to 1.0 mM and serially diluted 1 to 3 with DMSO through twelve dilutions. 1 μL of each concentration was transferred to the corresponding well of an assay plate. This creates a final compound concentration range from 0.00027 to 47.6 μM.
# (§10) The data for dose responses were plotted as % Inhibition calculated with the data reduction formula 100*(1−(U1−C2)/(C1−C2)) versus concentration of compound where U1 is the unknown value, C1 is the average control value obtained for 4.76% DMSO, and C2 is the average control value obtained for 0.035 M EDTA. Data were fitted with a curve described by:
# (§11) where Vmax is the upper asymptote, Y2 is the Y intercept, and K is the IC50. The results for each compound were recorded as pIC50s, calculated as follows: […]
# [3] = target: T2, ErbB2 (Homo sapiens, UniProt P04626); assay: ErbB-2 substrate phosphorylation assay (HTRF); format: biochemical; conditions: Method (A): Enzyme Mix incubated with compound at 20° C. for 1 hr, reaction started by adding Substrate Mix
# T2 construct: made in house; host or cells: baculovirus expression system
# T2 sequence (P04626 23-1255): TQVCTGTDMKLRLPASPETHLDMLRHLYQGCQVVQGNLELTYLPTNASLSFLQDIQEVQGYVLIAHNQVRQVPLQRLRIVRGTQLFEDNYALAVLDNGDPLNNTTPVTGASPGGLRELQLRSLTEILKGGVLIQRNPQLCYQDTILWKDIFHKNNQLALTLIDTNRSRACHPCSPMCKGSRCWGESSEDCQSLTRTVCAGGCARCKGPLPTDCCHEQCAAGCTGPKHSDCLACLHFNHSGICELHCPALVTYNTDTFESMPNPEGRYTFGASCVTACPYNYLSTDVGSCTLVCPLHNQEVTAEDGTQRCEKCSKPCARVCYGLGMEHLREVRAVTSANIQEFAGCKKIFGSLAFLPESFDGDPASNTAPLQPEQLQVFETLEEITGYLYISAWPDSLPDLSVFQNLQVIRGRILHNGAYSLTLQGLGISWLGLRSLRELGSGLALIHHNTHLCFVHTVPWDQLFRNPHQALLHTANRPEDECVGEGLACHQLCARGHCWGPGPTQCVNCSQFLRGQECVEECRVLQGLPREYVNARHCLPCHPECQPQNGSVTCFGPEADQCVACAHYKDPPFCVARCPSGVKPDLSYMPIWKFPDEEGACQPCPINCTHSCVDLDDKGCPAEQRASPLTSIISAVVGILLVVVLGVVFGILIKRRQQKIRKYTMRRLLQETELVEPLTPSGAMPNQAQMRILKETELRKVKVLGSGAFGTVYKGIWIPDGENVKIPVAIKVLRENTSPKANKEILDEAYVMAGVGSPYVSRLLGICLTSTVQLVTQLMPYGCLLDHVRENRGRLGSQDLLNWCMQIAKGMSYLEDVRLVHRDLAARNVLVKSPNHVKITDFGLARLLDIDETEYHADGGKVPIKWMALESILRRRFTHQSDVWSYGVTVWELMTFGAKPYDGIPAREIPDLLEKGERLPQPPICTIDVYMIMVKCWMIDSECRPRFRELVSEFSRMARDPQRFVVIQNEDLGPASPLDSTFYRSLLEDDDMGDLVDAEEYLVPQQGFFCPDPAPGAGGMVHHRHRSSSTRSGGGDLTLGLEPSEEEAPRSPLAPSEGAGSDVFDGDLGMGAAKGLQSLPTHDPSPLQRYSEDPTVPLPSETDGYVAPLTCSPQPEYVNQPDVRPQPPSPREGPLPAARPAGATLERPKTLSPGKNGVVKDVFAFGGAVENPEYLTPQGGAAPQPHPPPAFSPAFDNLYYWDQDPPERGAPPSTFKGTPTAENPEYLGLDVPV
# Method: as §4, §5, §6, §7, §8, §9, §10, §11
# [4] = test system: BT474 tumor cells; assay: Method C: Cell Growth Inhibition Assay (CellTiter-Glo), BT474; format: cell-based; conditions: Homo sapiens, BT-474, 72 h, 3 days, 4-parameter fit
# Method: as §1, §2, §3
# [5] = test system: SK-MEL-28 tumor cells; assay: Method C: Cell Growth Inhibition Assay (CellTiter-Glo), SK-MEL-28; format: cell-based; conditions: Homo sapiens, SK-MEL-28, 72 h, 3 days, 4-parameter fit
# Method: as §1, §2, §3
IC50 [1],IC50 [2],IC50 [3],IC50 [4],IC50 [5],SMILES
100 to 1000 nM,< 100 nM,< 100 nM,100 to 1000 nM,> 1000 nM,CC(C)(C)S(=O)(=O)Cc1nc(-c2cccc(NC(=O)c3c(F)cccc3F)c2)c(-c2ccnc(Nc3ccc(OCCN4CCCC4)c(Cl)c3)n2)s1 [Example 119]
100 to 1000 nM,< 100 nM,< 100 nM,< 100 nM,> 1000 nM,"CN1CCc2ccc(Nc3nccc(-c4sc(CS(=O)(=O)C(C)(C)C)nc4-c4cccc(NC(=O)c5c(F)cccc5F)c4)n3)cc2C1 [Example 120, N-[3-(2-{[(1,1-Dimethylethyl)sulfonyl]methyl}-5-{2-[(2-methyl-1,2,3,4-tetrahydro-7-isoquinolinyl)amino]-4-pyrimidinyl}-1,3-thiazol-4-yl)phenyl]-2,6-difluorobenzamide]"
> 1000 nM,< 100 nM,< 100 nM,100 to 1000 nM,> 1000 nM,CC(C)c1nc(-c2cccc(NC(=O)c3c(F)cccc3F)c2)c(-c2ccnc(Nc3cccc(OCCN(C)C)c3)n2)s1 [Example 122]
> 1000 nM,< 100 nM,< 100 nM,100 to 1000 nM,> 1000 nM,"CC(C)(C)c1nc(-c2cccc(NC(=O)c3c(F)cccc3F)c2)c(-c2ccnc(Nc3cccc(CN4CCCC4)c3)n2)s1 [Example 123, N-{3-[2-(1,1-Dimethylethyl)-5-(2-{[3-(1-pyrrolidinylmethyl)phenyl]amino}-4-pyrimidinyl)-1,3-thiazol-4-yl]phenyl}-2,6-difluorobenzamide]"
100 to 1000 nM,< 100 nM,< 100 nM,100 to 1000 nM,100 to 1000 nM,"CN1CCC(c2nc(-c3cccc(NC(=O)c4c(F)cccc4F)c3)c(-c3ccnc(Nc4ccc5c(c4)CN(C)CC5)n3)s2)CC1 [Example 125, 2,6-Difluoro-N-[3-(2-(1-methyl-4-piperidinyl)-5-{2-[(2-methyl-1,2,3,4-tetrahydro-7-isoquinolinyl)amino]-4-pyrimidinyl}-1,3-thiazol-4-yl)phenyl]benzamide]"
100 to 1000 nM,100 to 1000 nM,< 100 nM,> 1000 nM,> 1000 nM,Cc1nc(-c2cccc(NC(=O)Nc3ccc(Cl)c(C(F)(F)F)c3)c2)c(-c2ccnc(Nc3ccc4c(c3)CN(C)CC4)n2)s1 [Example 129]
> 1000 nM,< 100 nM,< 100 nM,> 1000 nM,> 1000 nM,"COc1ccccc1C(=O)Nc1cccc(-c2nc(C)sc2-c2ccnc(Nc3ccc4c(c3)CN(C)CC4)n2)c1 [Example 130, N-[3-(2-Methyl-5-{2-[(2-methyl-1,2,3,4-tetrahydro-7-isoquinolinyl)amino]-4-pyrimidinyl}-1,3-thiazol-4-yl)phenyl]-2-(methyloxy)benzamide]"
> 1000 nM,< 100 nM,< 100 nM,100 to 1000 nM,> 1000 nM,"COc1cccc(C(=O)Nc2cccc(-c3nc(C)sc3-c3ccnc(Nc4ccc5c(c4)CN(C)CC5)n3)c2)c1 [Example 132, N-[3-(2-Methyl-5-{2-[(2-methyl-1,2,3,4-tetrahydro-7-isoquinolinyl)amino]-4-pyrimidinyl}-1,3-thiazol-4-yl)phenyl]-3-(methyloxy)benzamide trifluoroacetate]"
100 to 1000 nM,100 to 1000 nM,100 to 1000 nM,> 1000 nM,100 to 1000 nM,"Cc1nc(-c2cccc(NC(=O)Nc3ccc(Cl)c(C(F)(F)F)c3)c2)c(-c2ccnc(Nc3ccc(OCCN(C)C)c(Cl)c3)n2)s1 [Example 133, N-[3-(5-{2-[(3-Chloro-4-{[2-(dimethylamino)ethyl]oxy}Phenyl)amino]-4-pyrimidinyl}-2-methyl-1,3-thiazol-4-yl)phenyl]-N′-[4-chloro-3-(trifluoromethyl)phenyl]urea]"
> 1000 nM,< 100 nM,< 100 nM,100 to 1000 nM,> 1000 nM,"Cc1cccc(C(=O)Nc2cccc(-c3nc(C)sc3-c3ccnc(Nc4ccc(OCCN(C)C)c(Cl)c4)n3)c2)c1 [Example 135, N-[3-(5-{2-[(3-Chloro-4-{[2-(dimethylamino)ethyl]oxy}phenyl)amino]-4-pyrimidinyl}-2-methyl-1,3-thiazol-4-yl)phenyl]-3-methylbenzamide]"
> 1000 nM,< 100 nM,< 100 nM,100 to 1000 nM,> 1000 nM,"Cc1nc(-c2cccc(NC(=O)c3cccc(Cl)c3)c2)c(-c2ccnc(Nc3ccc(OCCN(C)C)c(Cl)c3)n2)s1 [Example 136, 3-Chloro-N-[3-(5-{2-[(3-chloro-4-{[2-(dimethylamino)ethyl]oxy}phenyl)amino]-4-pyrimidinyl}-2-methyl-1,3-thiazol-4-yl)phenyl]benzamide]"
